Experimental data published in patent EP4635500A1, “THERAPEUTIC AGENT FOR BACTERIAL INFECTION” (Sumitomo Pharma Co., Ltd., priority 2022, dated 2024).
Values after ≈ are worked out from the molar mass of the structure shown. Read-outs that look alike come from different tables or passages of the source.

What was measured:
Format in all cases: cell-based
Morganella morganii = assay: MIC and MBC, broth microdilution (Example 4, Table 3); settings: Morganella morganii CDC-57 (NDM-1)
Escherichia coli = assay: MIC, broth microdilution, standard strains and Japanese clinical isolates (Example 5, Table 4)
Klebsiella pneumoniae = assay: as above
Enterobacter cloacae = assay: as above
Enterobacter hormaechei = assay: as above; settings: ATCCBAA2082; KUB4001 Enterobacter hormaechei ATCC BAA-2082, KPC-2
Providencia rettgeri = assay: as above; settings: ATCCBAA2525; KUB4010 Providencia rettgeri ATCC BAA-2525, OXA-181
53 CRE and CPE strains = assay: MICrange, MIC50, MIC80, MIC90 for 53 bacterial isolates (Example 5, Table 5)
P. aeruginosa = assay: MIC, broth microdilution, CDC/FDA Antibiotic Resistance Isolate Bank (Example 7, Tables 10, 15); settings: for MIC: Pseudomonas aeruginosa, read-out: MIC

C[C@@H](O)[C@H]1C(=O)N2C(C(=O)O)=C(S[C@@H]3CN[C@H](C(=O)N(C)C)C3)[C@H](C)[C@H]12 [MEPM, meropenem]
MBC (Morganella morganii): 8 µg/mL (≈ 20.9 µM)
MIC (Morganella morganii): 8 µg/mL (≈ 20.9 µM)
MIC (Escherichia coli; ATCCBAA2340, KUB3148 Escherichia coli ATCC BAA-2340, KPC-3): 0.5 µg/mL (≈ 1.3 µM)
MIC (Escherichia coli; ATCCBAA2452, KUB4005 Escherichia coli ATCC BAA-2452, NDM-1): 1 µg/mL (≈ 2.61 µM)
MIC (Escherichia coli; ATCCBAA2469, KUB3149 Escherichia coli ATCC BAA-2469, NDM-1): 2 µg/mL (≈ 5.22 µM)
MIC (Escherichia coli; ATCCBAA2471, KUB4007 Escherichia coli ATCC BAA-2471, NDM-6): 32 µg/mL (≈ 83.4 µM)
MIC (Escherichia coli; ATCCBAA2523, KUB3150 Escherichia coli ATCC BAA-2523, OXA-48): 0.06 µg/mL (≈ 0.156 µM)
MIC (Escherichia coli; KUB3151 Escherichia coli NCTC13476, IMP-1): 1 µg/mL (≈ 2.61 µM)
MIC (Escherichia coli; KUB3605 Escherichia coli Clinical isolate, NDM-1): 32 µg/mL (≈ 83.4 µM)
MIC (Klebsiella pneumoniae; ATCCBAA1705, KUB3152 Klebsiella pneumoniae ATCC BAA-1705, KPC-2): 4 µg/mL (≈ 10.4 µM)
MIC (Klebsiella pneumoniae; ATCCBAA1898, KUB3996 Klebsiella pneumoniae ATCC BAA-1898, KPC-2): 32 µg/mL (≈ 83.4 µM)
MIC (Klebsiella pneumoniae; ATCCBAA1899, KUB3997 Klebsiella pneumoniae ATCC BAA-1899, KPC-2): 8 µg/mL (≈ 20.9 µM)
MIC (Klebsiella pneumoniae; ATCCBAA1900, KUB3998 Klebsiella pneumoniae ATCC BAA-1900, KPC-3): 8 µg/mL (≈ 20.9 µM)
MIC (Klebsiella pneumoniae; ATCCBAA1902, KUB3153 Klebsiella pneumoniae ATCC BAA-1902, KPC-3): 64 µg/mL (≈ 167 µM)
MIC (Klebsiella pneumoniae; ATCCBAA1903, KUB3154 Klebsiella pneumoniae ATCC BAA-1903, KPC-2): 4 µg/mL (≈ 10.4 µM)
MIC (Klebsiella pneumoniae; ATCCBAA1904, KUB3999 Klebsiella pneumoniae ATCC BAA-1904, KPC-3): 2 µg/mL (≈ 5.22 µM)
MIC (Klebsiella pneumoniae; ATCCBAA1905, KUB3155 Klebsiella pneumoniae ATCC BAA-1905, KPC-2): 8 µg/mL (≈ 20.9 µM)
MIC (Klebsiella pneumoniae; ATCCBAA2078, KUB4000 Klebsiella pneumoniae ATCC BAA-2078, KPC-3): 4 µg/mL (≈ 10.4 µM)
MIC (Klebsiella pneumoniae; ATCCBAA2146, KUB4011 Klebsiella pneumoniae ATCC BAA-2146, NDM-1): 64 µg/mL (≈ 167 µM)
MIC (Klebsiella pneumoniae; ATCCBAA2342, KUB4003 Klebsiella pneumoniae ATCC BAA-2342, KPC-3): 4 µg/mL (≈ 10.4 µM)
MIC (Klebsiella pneumoniae; ATCCBAA2343, KUB4004 Klebsiella pneumoniae ATCC BAA-2343, KPC-3): 16 µg/mL (≈ 41.7 µM)
MIC (Klebsiella pneumoniae; ATCCBAA2344, KUB3156 Klebsiella pneumoniae ATCC BAA-2344, KPC-2): 4 µg/mL (≈ 10.4 µM)
MIC (Klebsiella pneumoniae; ATCCBAA2470, KUB3157 Klebsiella pneumoniae subsp. pneumoniae ATCC BAA-2470, NDM-1): 16 µg/mL (≈ 41.7 µM)
MIC (Klebsiella pneumoniae; ATCCBAA2473, KUB4009 Klebsiella pneumoniae ATCC BAA-2473, NDM-1): 64 µg/mL (≈ 167 µM)
MIC (Klebsiella pneumoniae; ATCCBAA2524, KUB3158 Klebsiella pneumoniae subsp. pneumoniae ATCC BAA-2524, OXA-48): 0.25 µg/mL (≈ 0.652 µM)
MIC (Klebsiella pneumoniae; KUB3163 Klebsiella pneumoniae Clinical isolate, IMP-1): 0.5 µg/mL (≈ 1.3 µM)
MIC (Klebsiella pneumoniae; KUB3164 Klebsiella pneumoniae Clinical isolate, IMP-6): 2 µg/mL (≈ 5.22 µM)
MIC (Klebsiella pneumoniae; KUB3166 Klebsiella pneumoniae Clinical isolate, IMP-1): 0.5 µg/mL (≈ 1.3 µM)
MIC (Klebsiella pneumoniae; KUB3606 Klebsiella pneumoniae Clinical isolate, KPC-38): 256 µg/mL (≈ 668 µM)
MIC (Klebsiella pneumoniae; KUB3607 Klebsiella pneumoniae Clinical isolate, IMP-1): 0.5 µg/mL (≈ 1.3 µM)
MIC (Klebsiella pneumoniae; KUB3628 Klebsiella pneumoniae Clinical isolate, IMP-1): 8 µg/mL (≈ 20.9 µM)
MIC (Klebsiella pneumoniae; KUB3630 Klebsiella pneumoniae Clinical isolate, IMP-1): 1 µg/mL (≈ 2.61 µM)
MIC (Klebsiella pneumoniae; KUB3631 Klebsiella pneumoniae Clinical isolate, IMP-1): 4 µg/mL (≈ 10.4 µM)
MIC (Klebsiella pneumoniae; KUB3633 Klebsiella pneumoniae Clinical isolate, IMP-6): 1 µg/mL (≈ 2.61 µM)
MIC (Klebsiella pneumoniae; KUB3634 Klebsiella pneumoniae Clinical isolate, IMP-6): 1 µg/mL (≈ 2.61 µM)
MIC (Klebsiella pneumoniae; KUB3635 Klebsiella pneumoniae Clinical isolate, IMP-1): 32 µg/mL (≈ 83.4 µM)
MIC (Klebsiella pneumoniae; NCTC13439, KUB3159 Klebsiella pneumoniae NCTC13439, VIM-1): 0.5 µg/mL (≈ 1.3 µM)
MIC (Klebsiella pneumoniae; NCTC13440, KUB3160 Klebsiella pneumoniae NCTC13440, VIM-1): 0.5 µg/mL (≈ 1.3 µM)
MIC (Enterobacter cloacae; ATCCBAA2341, KUB4002 Enterobacter cloacae ATCC BAA-2341, KPC-3): 16 µg/mL (≈ 41.7 µM)
MIC (Enterobacter cloacae; KUB3165 Enterobacter cloacae Clinical isolate, IMP-34): 0.25 µg/mL (≈ 0.652 µM)
MIC (Enterobacter cloacae; KUB3167 Enterobacter cloacae Clinical isolate, IMP-1): 0.25 µg/mL (≈ 0.652 µM)
MIC (Enterobacter cloacae; KUB3168 Enterobacter cloacae Clinical isolate, carbapenemase genes -): 0.06 µg/mL (≈ 0.156 µM)
MIC (Enterobacter cloacae; KUB3609 Enterobacter cloacae Clinical isolate, IMP-1): 16 µg/mL (≈ 41.7 µM)
MIC (Enterobacter cloacae; KUB3610 Enterobacter cloacae Clinical isolate, IMP-1): 4 µg/mL (≈ 10.4 µM)
MIC (Enterobacter hormaechei): 16 µg/mL (≈ 41.7 µM)
MIC (Providencia rettgeri): 2 µg/mL (≈ 5.22 µM)
MIC50 (53 CRE and CPE strains; 53 CRE and CPE strains, read-out: MIC50): 4 µg/mL (≈ 10.4 µM)
MIC80 (53 CRE and CPE strains; 53 CRE and CPE strains, read-out: MIC80): 16 µg/mL (≈ 41.7 µM)
MIC90 (53 CRE and CPE strains; 53 CRE and CPE strains, read-out: MIC90): 64 µg/mL (≈ 167 µM)
MIC50 (53 CRE and CPE strains; 53 bacterial isolates): 4 µg/mL (≈ 10.4 µM)
MIC80 (53 CRE and CPE strains; 53 bacterial isolates): 16 µg/mL (≈ 41.7 µM)
MIC90 (53 CRE and CPE strains; 53 bacterial isolates): 64 µg/mL (≈ 167 µM)
MICrange (53 CRE and CPE strains; 53 bacterial isolates): 0.06 to 256 µg/mL
MIC against 96 strains of P. aeruginosa MIC50 (P. aeruginosa; 96 strains of P. aeruginosa, β-lactamase inhibitor µg/mL in parentheses): 16 µg(mL)
MIC (P. aeruginosa; KUB No. 57 (continued 90 in the 40th table r2), AR Bank #44 (continued 5), no carbapenemase gene): 64 µg/mL (≈ 167 µM)
MIC (P. aeruginosa; KUB No. 5587, AR Bank #90, KPC-5): 32 µg/mL (≈ 83.4 µM)
MIC (P. aeruginosa; KUB No. 5591, AR Bank #94, no carbapenemase gene): 16 µg/mL (≈ 41.7 µM)
MIC (P. aeruginosa; KUB No. 5592, AR Bank #95, no carbapenemase gene): 8 µg/mL (≈ 20.9 µM)
MIC (P. aeruginosa; KUB No. 5607, AR Bank #110, VIM-2): 64 µg/mL (≈ 167 µM)
MIC (P. aeruginosa; KUB No. 5608, AR Bank #111, VIM-2): 32 µg/mL (≈ 83.4 µM)
MIC (P. aeruginosa; KUB No. 5662, AR Bank #229, no carbapenemase gene): 32 µg/mL (≈ 83.4 µM)
MIC (P. aeruginosa; KUB No. 5663, AR Bank #230, VIM-2): 64 µg/mL (≈ 167 µM)
MIC (P. aeruginosa; KUB No. 5666, AR Bank #233, no carbapenemase gene): 16 µg/mL (≈ 41.7 µM)
MIC (P. aeruginosa; KUB No. 5667, AR Bank #234, no carbapenemase gene): 2 µg/mL (≈ 5.22 µM)
MIC (P. aeruginosa; KUB No. 5668, AR Bank #235, no carbapenemase gene): 16 µg/mL (≈ 41.7 µM)
MIC (P. aeruginosa; KUB No. 5669, AR Bank #236, no carbapenemase gene): 2 µg/mL (≈ 5.22 µM)
MIC (P. aeruginosa; KUB No. 5670, AR Bank #237, no carbapenemase gene): 2 µg/mL (≈ 5.22 µM)
MIC (P. aeruginosa; KUB No. 5671, AR Bank #238, no carbapenemase gene): ≤ 0.25 µg/mL
MIC (P. aeruginosa; KUB No. 5672, AR Bank #239, GES-1, VIM-11): 64 µg/mL (≈ 167 µM)
MIC (P. aeruginosa; KUB No. 5676, AR Bank #243, VIM-2): 8 µg/mL (≈ 20.9 µM)
